Experimental data published in patent US20260317324A1, “BIFUNCTIONAL COMPOUNDS FOR DEGRADING BRAF VIA UBIQUITIN PROTEOSOME PATHWAY” (Nurix Therapeutics, Inc., priority 2023, published 2026).

What was measured:
Assay type in all cases: cell-based
BRAF D594G = molecular target: T1, BRAF D594G (Homo sapiens, UniProt P15056, D594G); experiment: BRAF HiBiT degradation assay, C-terminal HiBiT-tagged BRAF D594G overexpressed in HCT-116 BRAF−/− cells (clone 63), Nano-Glo HiBiT Lytic assay
T1 construct: Horizon Discovery (HCT-116 BRAF−/− cells); host or cells: HCT-116 BRAF−/− cells, clone 63, lentiviral transduction
In short: (§1)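 HCT-116 BRAF−/− clones stably overexpressing C-terminal HiBiT-tagged mutant BRAF were seeded 24 h before treatment with an 11-point half-log series from 1 μM to 0.01 nM (0.2% DMSO final). Remaining protein was read by HiBiT lytic luminescence, with DMSO and wildtype-cell controls. DC50 was taken as the fitted concentration at 50% remaining protein; observed Dmax is reported relative to DMSO.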

BRAF V600E = molecular target: T2, BRAF V600E (Homo sapiens, UniProt P15056, V600E); experiment: BRAF HiBiT degradation assay, C-terminal HiBiT-tagged BRAF V600E A375 cells (clone 1F10), Nano-Glo HiBiT Lytic assay; settings: for Dmax: A-375
T2 construct: endogenous C-terminal HiBiT fusion tag on BRAF V600E allele; endogenous in cells; host or cells: A375 clone 1F10 (CRISPR-Cas9 knock-in of the HiBiT tag; parental A375 from ATCC)
In short: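 A375 cells (clone 1F10, endogenous C-terminal HiBiT on BRAF V600E) were seeded at 10,000 cells/well, grown 24 h, then dosed in duplicate with an 11-point series from 1 μM to 0.01 nM (0.2% DMSO). Nano-Glo HiBiT lytic luminescence was normalised to DMSO and wildtype-A375 background; DC50 was read at 50% protein remaining, alongside observed Dmax.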

BRAF G466V = molecular target: T3, BRAF G466V (Homo sapiens, UniProt P15056, G466V); experiment: BRAF HiBiT degradation assay, C-terminal HiBiT-tagged BRAF G466V overexpressed in HCT-116 BRAF−/− cells (clone 8), Nano-Glo HiBiT Lytic assay
T3 construct: Horizon Discovery (HCT-116 BRAF−/− cells); host or cells: HCT-116 BRAF−/− cells, clone 8, lentiviral transduction
In short: as §1

BRAF G469A = molecular target: T4, BRAF G469A (Homo sapiens, UniProt P15056, G469A); experiment: BRAF HiBiT degradation assay, C-terminal HiBiT-tagged BRAF G469A overexpressed in HCT-116 BRAF−/− cells (clone 34), Nano-Glo HiBiT Lytic assay
T4 construct: Horizon Discovery (HCT-116 BRAF−/− cells); host or cells: HCT-116 BRAF−/− cells, clone 34, lentiviral transduction
In short: as §1

[1] = BRAF D594G, DC50 at 50%: fitted conc. at Y=50
[2] = HCT-116, BRAF D594G, percentage protein degraded at maximal compound effect relative to DMSO
[3] = A375 (BRAF V600E), DC50 at 50%: fitted conc. at Y=50
[4] = A375 (BRAF V600E), percentage protein degraded at maximal compound effect relative to DMSO
[5] = BRAF G466V, DC50 at 50%: fitted conc. at Y=50
[6] = HCT-116, BRAF G466V, percentage protein degraded at maximal compound effect relative to DMSO
[7] = Class 2, BRAF G469A, DC50 at 50%: fitted conc. at Y=50
[8] = HCT-116, Class 2, BRAF G469A, percentage protein degraded at maximal compound effect relative to DMSO
[9] = BRAF D594G (Class 3), HCT-116 BRAF−/− cells, DC50 at 50% degradation
[10] = BRAF D594G (Class 3), HCT-116 BRAF−/− cells, observed Dmax relative to DMSO control
[11] = A375 (BRAF V600E, Class 1), DC50 at 50% degradation
[12] = A375 (BRAF V600E, Class 1), observed Dmax, % protein degraded relative to DMSO control
[13] = BRAF G466V (Class 3), HCT-116 BRAF−/− cells, DC50 at 50% degradation
[14] = BRAF G466V (Class 3), HCT-116 BRAF−/− cells, observed Dmax relative to DMSO control
[15] = BRAF G469A (Class 2), HCT-116 BRAF−/− cells, DC50 at 50% degradation
[16] = BRAF G469A (Class 2), HCT-116 BRAF−/− cells, observed Dmax relative to DMSO control

T1 sequence (P15056 whole entry D594G): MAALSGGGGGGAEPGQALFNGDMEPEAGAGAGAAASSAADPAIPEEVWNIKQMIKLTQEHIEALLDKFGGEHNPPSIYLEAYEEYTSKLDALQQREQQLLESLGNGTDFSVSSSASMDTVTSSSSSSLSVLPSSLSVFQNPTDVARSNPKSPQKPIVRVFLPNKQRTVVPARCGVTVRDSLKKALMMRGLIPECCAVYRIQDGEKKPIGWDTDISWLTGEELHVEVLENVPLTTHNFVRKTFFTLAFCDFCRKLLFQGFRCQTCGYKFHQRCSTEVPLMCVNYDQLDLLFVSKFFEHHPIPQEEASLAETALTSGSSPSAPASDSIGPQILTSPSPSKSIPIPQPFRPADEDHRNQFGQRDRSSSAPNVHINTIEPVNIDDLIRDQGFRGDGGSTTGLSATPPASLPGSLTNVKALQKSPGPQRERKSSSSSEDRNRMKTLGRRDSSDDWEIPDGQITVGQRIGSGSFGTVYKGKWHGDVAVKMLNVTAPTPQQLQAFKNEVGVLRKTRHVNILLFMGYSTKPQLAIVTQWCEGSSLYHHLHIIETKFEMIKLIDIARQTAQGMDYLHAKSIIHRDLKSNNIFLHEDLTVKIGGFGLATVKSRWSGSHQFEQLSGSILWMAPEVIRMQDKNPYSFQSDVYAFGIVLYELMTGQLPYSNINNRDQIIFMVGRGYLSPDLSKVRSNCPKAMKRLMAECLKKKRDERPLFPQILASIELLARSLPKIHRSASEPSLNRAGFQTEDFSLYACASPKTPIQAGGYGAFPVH
T3 sequence (P15056 whole entry G466V): as the sequence (P15056 whole entry D594G) above, with G466V, G594D counted along it
T4 sequence (P15056 whole entry G469A): as the sequence (P15056 whole entry D594G) above, with G469A, G594D counted along it
T2 sequence (P15056 whole entry V600E, the tested form may be a part): as the sequence (P15056 whole entry D594G) above, with G594D, V600E counted along it

Row | Structure (SMILES) | DC50 (BRAF D594G; [1]) [nM] | Dmax (BRAF D594G; [2]) [%] | DC50 (BRAF V600E; [3]) [nM] | Dmax (BRAF V600E; [4]) [%] | DC50 (BRAF G466V; [5]) [nM] | Dmax (BRAF G466V; [6]) [%] | DC50 (BRAF G469A; [7]) [nM] | Dmax (BRAF G469A; [8]) [%] | DC50 (BRAF D594G; [9]) [nM] | Dmax (BRAF D594G; [10]) [%] | DC50 (BRAF V600E; [11]) [nM] | Dmax (BRAF V600E; [12]) [%] | DC50 (BRAF G466V; [13]) [nM] | Dmax (BRAF G466V; [14]) [%] | DC50 (BRAF G469A; [15]) [nM] | Dmax (BRAF G469A; [16]) [%]
1 | O=C1CCC(c2ccc(N3CCC(CN4CCN(c5ccc(-n6cc(-c7cc(Cl)cc(NS(=O)(=O)N8CCCC8)c7F)c(-c7ccncc7)n6)nc5)CC4)CC3)nc2)C(=O)N1 (racemic) [Compound 288, Rac-N-{5-chloro-3-[1-(5-{4-[(1-{5-[(3R)-2,6-dioxopiperidin-3-yl]pyridin-2-yl}piperidin-4-yl)methyl]piperazin-1-yl}pyridin-2-yl)-3-(pyridin-4-yl)-1H-pyrazol-4-yl]-2-fluorophenyl}pyrrolidine-1-sulfonamide] | – | – | – | – | – | – | – | – | < 10 | > 70 | < 10 | > 70 | < 10 | > 70 | < 10 | > 70
2 | O=C1CCC(c2ccc(N3CCC(CN4CCN(c5ccc(-n6cc(-c7cc(F)cc(NS(=O)(=O)N8CC[C@@H](F)C8)c7F)c(-c7ccncc7)n6)nc5)CC4)CC3)nc2)C(=O)N1 (mixture of isomers) [Compound 304, (3R)—N-{3-[1-(5-{4-[(1-{5-[(3RS)-2,6-dioxopiperidin-3-yl]pyridin-2-yl}piperidin-4-yl)methyl]piperazin-1-yl}pyridin-2-yl)-3-(pyridin-4-yl)-1H-pyrazol-4-yl]-2,5-difluorophenyl}-3-fluoropyrrolidine-1-sulfonamide] | – | – | – | – | – | – | – | – | < 10 | > 70 | < 10 | > 70 | < 10 | > 70 | 10 to 50 | > 70
3 | CCCS(=O)(=O)Nc1cccc(-c2nc(C(C)(C)C)sc2-c2ccnc(Nc3cnn(CC4CCN(C(=O)CN5CCC(c6ccc(NC7CCC(=O)NC7=O)cc6)CC5)CC4)c3)n2)c1F (racemic) [Compound 116, Rac-N-(3-{2-tert-butyl-5-[2-({1-[(1-{2-[4-(4-{[(3R)-2,6-dioxopiperidin-3-yl]amino}phenyl)piperidin-1-yl]acetyl}piperidin-4-yl)methyl]-1H-pyrazol-4-yl}amino)pyrimidin-4-yl]-1,3-thiazol-4-yl}-2-fluorophenyl)propane-1-sulfonamide] | > 500 | < 30 | 10 to 50 | > 70 | > 500 | 30 to 70 | > 500 | < 30 | – | – | – | – | – | – | – | –
4 | C[C@@H]1CN(c2ccc(-n3cc(-c4cc(Cl)cc(NS(=O)(=O)N5CCCC5)c4F)c(-c4ccncc4)n3)c(F)c2)C[C@@H](C)N1CC1CCN(c2ccc(C3CCC(=O)NC3=O)cn2)CC1 (mixture of isomers) [Compound 382, N-(5-chloro-3-(1-(4-((3R,5R)-4-((1-(5-((RS)-2,6-dioxopiperidin-3-yl)pyridin-2-yl)piperidin-4-yl)methyl)-3,5-dimethylpiperazin-1-yl)-2-fluorophenyl)-3-(pyridin-4-yl)-1H-pyrazol-4-yl)-2-fluorophenyl)pyrrolidine-1-sulfonamide] | – | – | – | – | – | – | – | – | < 10 | > 70 | < 10 | > 70 | < 10 | > 70 | 10 to 50 | > 70
5 | CCCS(=O)(=O)Nc1cccc(-c2nc(-c3ccc(C4CCN(C(=O)CC5CCN(c6ccc(C7CCC(=O)NC7=O)cn6)CC5)CC4)cc3)sc2-c2ccnc(N)n2)c1F (racemic) [Compound 207, Rac-N-{3-[5-(2-aminopyrimidin-4-yl)-2-(4-{1-[2-(1-{5-[(3R)-2,6-dioxopiperidin-3-yl]pyridin-2-yl}piperidin-4-yl)acetyl]piperidin-4-yl}phenyl)-1,3-thiazol-4-yl]-2-fluorophenyl}propane-1-sulfonamide] | > 500 | 30 to 70 | 10 to 50 | > 70 | > 500 | 30 to 70 | > 500 | 30 to 70 | – | – | – | – | – | – | – | –
6 | CCCS(=O)(=O)Nc1cccc(-c2nc(C(C)(C)C)sc2-c2ccnc(Nc3ccc(C4CCN(CC5CCN(c6ccc(C7CCC(=O)NC7=O)cc6)CC5)CC4)cc3)n2)c1F (racemic) [Compound 167, Rac-N-[3-(2-tert-butyl-5-{2-[(4-{1-[(1-{4-[(3R)-2,6-dioxopiperidin-3-yl]phenyl}piperidin-4-yl)methyl]piperidin-4-yl}phenyl)amino]pyrimidin-4-yl}-1,3-thiazol-4-yl)-2-fluorophenyl]propane-1-sulfonamide] | > 500 | 30 to 70 | 10 to 50 | 30 to 70 | > 500 | 30 to 70 | > 500 | 30 to 70 | – | – | – | – | – | – | – | –

Next, values leading:

Row | DC50 (BRAF D594G; [1]) [nM] | Dmax (BRAF D594G; [2]) [%] | DC50 (BRAF V600E; [3]) [nM] | Dmax (BRAF V600E; [4]) [%] | DC50 (BRAF G466V; [5]) [nM] | Dmax (BRAF G466V; [6]) [%] | DC50 (BRAF G469A; [7]) [nM] | Dmax (BRAF G469A; [8]) [%] | DC50 (BRAF D594G; [9]) [nM] | Dmax (BRAF D594G; [10]) [%] | DC50 (BRAF V600E; [11]) [nM] | Dmax (BRAF V600E; [12]) [%] | DC50 (BRAF G466V; [13]) [nM] | Dmax (BRAF G466V; [14]) [%] | DC50 (BRAF G469A; [15]) [nM] | Dmax (BRAF G469A; [16]) [%] | Structure (SMILES)
7 | > 500 | 30 to 70 | < 10 | > 70 | > 500 | < 30 | > 500 | < 30 | – | – | – | – | – | – | – | – | CCCS(=O)(=O)Nc1cccc(-c2nc(C(C)(C)C)sc2-c2ccnc(Nc3cnn(CC4CCN(C(=O)[C@H]5CC[C@H](Oc6ccc(C7CCC(=O)NC7=O)cn6)CC5)CC4)c3)n2)c1F (mixture of isomers) [Compound 117, N-{3-[2-tert-butyl-5-(2-{[1-({1-[(1r,4r)-4-({5-[(3RS)-2,6-dioxopiperidin-3-yl]pyridin-2-yl}oxy)cyclohexanecarbonyl]piperidin-4-yl}methyl)-1H-pyrazol-4-yl]amino}pyrimidin-4-yl)-1,3-thiazol-4-yl]-2-fluorophenyl}propane-1-sulfonamide]
8 | > 500 | 30 to 70 | < 10 | > 70 | > 500 | 30 to 70 | > 500 | < 30 | – | – | – | – | – | – | – | – | CCCS(=O)(=O)Nc1cccc(-c2nc(C3CCN(CC4CCN(C(=O)[C@H]5CC[C@H](Oc6ccc(C7CCC(=O)NC7=O)cc6)CC5)CC4)CC3)sc2-c2ccnc(N)n2)c1F (mixture of isomers) [Compound 224, N-{3-[5-(2-aminopyrimidin-4-yl)-2-[1-({1-[(1r,4r)-4-{4-[(3RS)-2,6-dioxopiperidin-3-yl]phenoxy}cyclohexanecarbonyl]piperidin-4-yl}methyl)piperidin-4-yl]-1,3-thiazol-4-yl]-2-fluorophenyl}propane-1-sulfonamide]
9 | > 500 | < 30 | > 500 | 30 to 70 | > 500 | < 30 | > 500 | < 30 | – | – | – | – | – | – | – | – | CCCS(=O)(=O)Nc1cccc(-c2nc(C(C)(C)C)sc2-c2ccnc(Nc3cccc(OC4CCN(C(=O)C[C@@H]5CCN(c6ccc(C7CCC(=O)NC7=O)cc6)C5)CC4)c3)n2)c1F (mixture of isomers) [Compound 92, N-(3-{2-tert-butyl-5-[2-({3-[(1-{2-[(3S)-1-{4-[(3RS)-2,6-dioxopiperidin-3-yl]phenyl}pyrrolidin-3-yl]acetyl}piperidin-4-yl)oxy]phenyl}amino)pyrimidin-4-yl]-1,3-thiazol-4-yl}-2-fluorophenyl)propane-1-sulfonamide]
10 | > 500 | 30 to 70 | 10 to 50 | > 70 | 10 to 50 | 30 to 70 | > 500 | 30 to 70 | – | – | – | – | – | – | – | – | CCCS(=O)(=O)Nc1cccc(-c2cn(-c3ccc(N4CCN(CC5CCN(c6ccc([C@@H]7CCC(=O)NC7=O)cc6)CC5)CC4)cc3)nc2-c2ccncc2)c1F [Compound 10, N-{3-[1-(4-{4-[(1-{4-[(3S)-2,6-dioxopiperidin-3-yl]phenyl}piperidin-4-yl)methyl]piperazin-1-yl}phenyl)-3-(pyridin-4-yl)-1H-pyrazol-4-yl]-2-fluorophenyl}propane-1-sulfonamide]
